One data set deals with hERG channels (Homo sapiens (Human), UniProt Q12809). Put plainly: hERG Manual Patch Clamp Assay (HEK 293 cells stably expressing hERG channels). The format is cell-based. The following applies: human, HEK 293 cells stably expressing hERG channels, pH 7.4. Background: The hERG channel carries a current that helps repolarise heart muscle cells.
For the next data set, the target named is hROMK (human Kir1.1) (Homo sapiens (Human), UniProt P48048). Put plainly: Thallium Flux Assay (FluxOR, CHO T-Rex hROMK stable cell line). Conditions: CHO T-Rex hROMK cells, 10-point concentration response curve; read-out: Human ROMK TH Flux IC50. Format: cell-based.
hROMK (human Kir1.1), sequence (P48048 whole entry): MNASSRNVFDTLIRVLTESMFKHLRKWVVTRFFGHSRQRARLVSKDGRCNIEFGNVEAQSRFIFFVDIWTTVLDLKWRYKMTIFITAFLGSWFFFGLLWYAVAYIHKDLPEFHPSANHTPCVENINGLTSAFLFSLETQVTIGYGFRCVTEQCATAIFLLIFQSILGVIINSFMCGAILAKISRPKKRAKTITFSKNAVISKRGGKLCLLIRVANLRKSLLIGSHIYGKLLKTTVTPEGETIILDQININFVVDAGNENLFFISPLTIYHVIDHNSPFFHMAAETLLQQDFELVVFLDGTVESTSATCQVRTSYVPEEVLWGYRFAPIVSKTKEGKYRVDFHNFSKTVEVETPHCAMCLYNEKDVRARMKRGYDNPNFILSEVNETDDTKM

hERG channels, sequence (Q12809 whole entry): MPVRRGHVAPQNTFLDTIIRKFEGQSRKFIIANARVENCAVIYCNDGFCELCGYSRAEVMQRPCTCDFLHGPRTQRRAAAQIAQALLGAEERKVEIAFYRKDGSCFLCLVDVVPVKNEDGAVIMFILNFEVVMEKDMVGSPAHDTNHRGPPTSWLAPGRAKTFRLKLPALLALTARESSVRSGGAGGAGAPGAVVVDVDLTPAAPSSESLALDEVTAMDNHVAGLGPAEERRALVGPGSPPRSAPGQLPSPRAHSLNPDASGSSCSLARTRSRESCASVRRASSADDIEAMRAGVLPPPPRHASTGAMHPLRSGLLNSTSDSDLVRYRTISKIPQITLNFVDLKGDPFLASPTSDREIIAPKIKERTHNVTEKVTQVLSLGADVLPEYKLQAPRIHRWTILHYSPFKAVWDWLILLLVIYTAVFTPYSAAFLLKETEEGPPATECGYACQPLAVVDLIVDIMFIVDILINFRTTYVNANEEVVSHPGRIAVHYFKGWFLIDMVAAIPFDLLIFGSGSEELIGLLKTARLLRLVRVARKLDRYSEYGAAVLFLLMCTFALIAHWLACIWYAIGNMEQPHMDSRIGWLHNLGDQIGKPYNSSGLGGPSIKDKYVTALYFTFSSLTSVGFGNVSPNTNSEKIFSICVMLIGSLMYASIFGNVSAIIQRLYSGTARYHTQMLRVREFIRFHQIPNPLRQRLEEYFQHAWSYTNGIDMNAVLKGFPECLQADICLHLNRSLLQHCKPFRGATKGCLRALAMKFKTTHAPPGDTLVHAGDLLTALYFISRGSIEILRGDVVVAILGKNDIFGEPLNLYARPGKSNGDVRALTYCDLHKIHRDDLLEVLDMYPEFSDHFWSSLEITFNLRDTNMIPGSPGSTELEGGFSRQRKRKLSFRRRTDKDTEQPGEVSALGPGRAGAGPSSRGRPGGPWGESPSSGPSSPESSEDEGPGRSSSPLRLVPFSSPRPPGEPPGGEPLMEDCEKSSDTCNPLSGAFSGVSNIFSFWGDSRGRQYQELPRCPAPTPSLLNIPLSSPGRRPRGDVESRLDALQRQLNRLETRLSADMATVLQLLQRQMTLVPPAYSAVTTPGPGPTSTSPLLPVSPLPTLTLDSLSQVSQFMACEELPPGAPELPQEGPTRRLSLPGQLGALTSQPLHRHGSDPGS
Description for hROMK (human Kir1.1): Solutions and reagents: Thallium flux assay was performed using FluxOR kit (F10017, Life Technologies). Loading buffer, assay buffer and stimulus buffer were prepared using kit components.
To prepare 10 ml of loading buffer: 10 μl of FluxOR dye (reconstituted in DMSO) was first added to 100 μl of powerload concentrate and this mix along with 100 μl of Probenicid (100×) was then added to 9.79 ml of HBSS. […] Stimulus buffer was composed of 15 mM Tl2SO4, 0.75 mM K2SO4 in FluxOR chloride free buffer (diluted to 1× using deionized water). The final concentration of Tl2SO4 and K2SO4 in the assay plate was 3 mM and 0.15 mM, respectively.
Plating and induction of cells: The CHO T-Rex hROMK (human Kir1.1) stable cell line was maintained in Ham's F12 media supplemented with 10% FBS, 1% Penicillin-Streptomycin, 500 μg/ml Zeocin and 10 μg/ml Blasticidin at 37° C. in a 5% CO2 incubator. […] The cell suspension was centrifuged at 1200 rpm for 5 min. After discarding the supernatant, the cells were resuspended in fresh growth media and cell concentration was determined using a hemocytometer. […] The assay plate was kept at 37° C. in a 5% CO2 incubator.
Assay protocol: On the day of experiment, media was removed and loading buffer was added (30 μl/well) to the assay plate. The cells were incubated in the loading buffer for 30 minutes at 37° C. The loading buffer was then replaced by assay buffer (30 μl/well) followed by addition of test compounds or controls. […] Each well was read for 90 sec at 2 sec interval and the stimulus buffer was added after 20 seconds of baseline recording. The final DMSO concentration was either 0.5 or 1% in the assay plate. Positive and negative controls were defined by addition of DMSO or 3 μM of a standard ROMK inhibitor, respectively, to the wells instead of a test compound.
A 10-point concentration response curve was used to estimate the IC50 value of test compounds.

As usually defined, the inhibition is the relative decrease from the control value, in per cent. A higher inhibition goes with a strong effect. As a reminder, the IC50 is the point on the concentration scale where inhibition reaches its midpoint. In the case of `COc1cc(-n2cc(CNC[C@H](O)c3ccc4c(c3C)COC4=O)cn2)cc2c1oc(=O)n2C` [Example 112, (R)-5-(4-(((2-hydroxy-2-(4-methyl-1-oxo-1,3-di-Hydroisobenzofuran-5-yl)ethyl)amino)methyl)-1H-pyrazol-1-yl)-7-methoxy-3-mthylbenzo[d]oxazol-2(3H)-one], at hERG channels, at 1 µM the inhibition was 4.2%. For the same molecule, the IC50 at hROMK (human Kir1.1) worked out at 0.066 µM.

Take `COc1nn(-c2ncc(CNC[C@H](O)c3ccc4c(c3C)COC4=O)cn2)cc1C#N` [Example 113, (R)-1-(5-(((2-hydroxy-2-(4-methyl-1-oxo-1,3-dihydroisobenzofuran-5-yl)ethyl)amino)methyl)pyrimidin-2-yl)-3-methoxy-1H-pyrazole-4-carbonitrile]: 1 µM produced 12% inhibition on hERG channels. The IC50 at hROMK (human Kir1.1) stood at 0.014 µM.

For `CCc1nn(-c2ncc(CNC[C@H](O)c3ccc4c(c3C)COC4=O)cn2)cc1C#N` [Example 114, (R)-3-ethyl-1-(5-(((2-hydroxy-2-(4-methyl-1-oxo-1,3-dihydroisobenzofuran-5-yl)ethyl)amino)methyl)pyrimidin-2-yl)-1H-pyrazole-4-carbonitrile], the inhibition at 1 µM at hERG channels is 25%. At hROMK (human Kir1.1), the half-inhibitory concentration (IC50) worked out at 0.017 µM.

Regarding `Cc1c([C@@H](O)CNCc2cnc(-n3cc(C#N)c(C4CC4)n3)nc2)ccc2c1COC2=O` [Example 117, (R)-3-cyclopropyl-1-(5-(((2-hydroxy-2-(4-methyl-1-oxo-1,3-dihydroisobenzofuran-5-yl)ethyl)amino)methyl)pyrimidin-2-yl)-1H-pyrazole-4-carbonitrile], 1 µM produced 32% inhibition against hERG channels. Moreover, on hROMK (human Kir1.1), the IC50 came to 0.024 µM.

As to `Cc1cn(-c2ccc(CNC[C@H](O)c3ccc4c(c3C)COC4=O)cn2)nn1` [Example 118, (R)-5-(1-hydroxy-2-(((6-(4-methyl-1H-1,2,3-triazol-1-yl)pyridin-3-yl)methyl)amino)ethyl)-4-methylisobenzofuran-1(3H)-one], at hERG channels, testing at 1 µM gave an inhibition of 16%. The IC50 on hROMK (human Kir1.1) was found to be 0.07 µM.

At hERG channels, `Cc1cc(-c2ncc(CNC[C@H](O)c3ccc4c(c3C)COC4=O)s2)ncc1C#N` [Example 128, (R)-6-(5-(((2-hydroxy-2-(4-methyl-1-oxo-1,3-dihydroisobenzofuran-5-yl)ethyl)amino)methyl)thiazol-2-yl)-4-methylnicotinonitrile] came in with an inhibition at 1 µM of 22%. Further, the IC50 on hROMK (human Kir1.1) was 0.0066 µM.

For the molecule `Cc1c([C@@H](O)CNCc2ccc(-n3cnc(C#N)c3)nc2)ccc2c1COC2=O` [Example 131, (R)-1-(5-(((2-hydroxy-2-(4-methyl-1-oxo-1,3-dihydroisobenzofuran-5-yl)ethyl)amino)methyl)pyridin-2-yl)-1H-imidazole-4-carbonitrile], on hERG channels, the inhibition at 1 µM was 79%. Moreover, the IC50 at hROMK (human Kir1.1) was determined as 0.0092 µM.

The molecule `Cc1c([C@@H](O)CNCc2ccc(-n3cnc(C#N)n3)nc2)ccc2c1COC2=O` [Example 132, (R)-1-(5-(((2-hydroxy-2-(4-methyl-1-oxo-1,3-dihydroisobenzofuran-5-yl)ethyl)amino)methyl)pyridin-2-yl)-1H-1,2,4-triazole-3-carbonitrile] registered an inhibition at 1 µM on hERG channels of 61%. Further, on hROMK (human Kir1.1), the IC50 was found to be 0.026 µM.

On to `Cc1c([C@@H](O)CNCc2cccc(-c3ccc4oc(=O)n(C)c4c3)n2)ccc2c1COC2=O` [Example 133, (R)-5-(6-(((2-hydroxy-2-(4-methyl-1-oxo-1,3-dihydroisobenzofuran-5-yl)ethyl)amino)methyl)pyridin-2-yl)-3-methylbenzo[d]oxazol-2(3H)-one], for which the inhibition at 1 µM on hERG channels was found to be 59%. Also, the IC50 at hROMK (human Kir1.1) came out at 0.9 µM.

Regarding `COc1cc(-c2ncc(CNC[C@H](O)c3ccc4c(c3C)COC4=O)cn2)ncc1C#N` [Example 134, (R)-6-(5-(((2-hydroxy-2-(4-methyl-1-oxo-1,3-dihydroisobenzofuran-5-yl)ethyl)amino)methyl)pyrimidin-2-yl)-4-methoxynicotinonitrile], at hERG channels, testing at 1 µM gave an inhibition of 3.8%. Besides, the IC50 at hROMK (human Kir1.1) was 0.077 µM.

On to `CCN(Cc1ccc(-c2ccc3oc(=O)n(C)c3c2)nc1)C[C@H](O)c1ccc2c(c1C)COC2=O` [Example 135, (R)-5-(5-((ethyl(2-hydroxy-2-(4-methyl-1-oxo-1,3-dihydroisobenzofuran-5-yl)ethyl)amino)methyl)pyridin-2-yl)-3-methylbenzo[d]oxazol-2(3H)-one], for which the inhibition at 1 µM on hERG channels stood at 51%. The IC50 on hROMK (human Kir1.1) was determined as 0.067 µM.

Take `CNc1cc(-n2cc(CNC[C@H](O)c3ccc4c(c3C)COC4=O)cn2)ncc1C#N` [Example 146, (R)-6-(4-(((2-hydroxy-2-(4-methyl-1-oxo-1,3-dihydroisobenzofuran-5-yl)ethyl)amino)methyl)-1H-pyrazol-1-yl)-4-(methylamino)nicotinonitrile]: the inhibition at 1 µM on hERG channels was 61%. The IC50 at hROMK (human Kir1.1) is 0.025 µM.

In turn, `CO[C@@H](CNCc1cnn(-c2cc(C)c(C#N)cn2)c1)c1ccc2c(c1C)COC2=O` [Example 147, (R)-6-(4-(((2-methoxy-2-(4-methyl-1-oxo-1,3-dihydroisobenzofuran-5-yl)ethyl)amino)methyl)-1H-pyrazol-1-yl)-4-methylnicotinonitrile] showed an inhibition at 1 µM on hERG channels of 28%. At hROMK (human Kir1.1), the IC50 amounted to 0.037 µM.

Molecule `Cc1c([C@@H](O)CNCc2cnn(-c3cc(C4CC4)c(C#N)cn3)c2)ccc2c1COC2=O` [Example 148, (R)-4-cyclopropyl-6-(4-(((2-hydroxy-2-(4-methyl-1-oxo-1,3-dihydroisobenzofuran-5-yl)ethyl)amino)methyl)-1H-pyrazol-1-yl)nicotinonitrile] yielded an inhibition at 1 µM on hERG channels of 72%. For the same molecule, at hROMK (human Kir1.1), the IC50 was found to be 0.2 µM.

With `Cc1c([C@@H](O)CNCc2cn(-c3ccc4oc(=O)n(C)c4c3C)cn2)ccc2c1COC2=O` [Example 149, (R)-5-(4-(((2-hydroxy-2-(4-methyl-1-oxo-1,3-dihydroisobenzofuran-5-yl)ethyl)amino)methyl)-1H-imidazol-1-yl)-3,4-dimethylbenzo[d]oxazol-2(3H)-one], at hERG channels, the inhibition at 1 µM stood at 8.6%. On hROMK (human Kir1.1), the IC50 was found to be 0.084 µM.

Take `COc1cc(-n2cc(CNC[C@H](O)c3ccc4c(c3OC)COC4=O)cn2)ncc1C#N` [Example 150, (R)-6-(4-(((2-hydroxy-2-(4-methoxy-1-oxo-1,3-dihydroisobenzofuran-5-yl)ethyl)amino)methyl)-1H-pyrazol-1-yl)-4-methoxynicotinonitrile]: the inhibition at 1 µM at hERG channels was 55%. For the same molecule, the IC50 on hROMK (human Kir1.1) was found to be 0.056 µM.

For `Cc1c([C@@H](O)CNCc2ccc(-n3ccc(C#N)n3)nc2)ccc2c1COC2=O` [Example 151, (R)-1-(5-(((2-hydroxy-2-(4-methyl-1-oxo-1,3-dihydroisobenzofuran-5-yl)ethyl)amino)methyl)pyridin-2-yl)-1H-pyrazole-3-carbonitrile], on hERG channels, the inhibition at 1 µM is 45%. On hROMK (human Kir1.1), the IC50 is 0.029 µM.

Turning to `CCOc1cc(-n2cc(CNC[C@H](O)c3ccc4c(c3C)COC4=O)cn2)ncc1C#N` [Example 152, (R)-4-ethoxy-6-(4-(((2-hydroxy-2-(4-methyl-1-oxo-1,3-dihydroisobenzofuran-5-yl)ethyl)amino)methyl)-1H-pyrazol-1-yl)nicotinonitrile], on hERG channels, at 1 µM the inhibition was 64%. Further, the IC50 on hROMK (human Kir1.1) turned out to be 0.0062 µM.

In turn, `CCOc1cc(-n2ncc(CNC[C@H](O)c3ccc4c(c3C)COC4=O)n2)ncc1C#N` [Example 155, (R)-4-ethoxy-6-(4-(((2-hydroxy-2-(4-methyl-1-oxo-1,3-dihydroisobenzofuran-5-yl)ethyl)amino)methyl)-2H-1,2,3-triazol-2-yl)nicotinonitrile] had an inhibition at 1 µM on hERG channels of 20%. Besides, at hROMK (human Kir1.1), the IC50 came out at 0.031 µM.

For `CCOc1cc(-n2cc(CNC[C@H](O)c3ccc4c(c3C)COC4=O)nn2)ncc1C#N` [Example 156, (R)-4-ethoxy-6-(4-(((2-hydroxy-2-(4-methyl-1-oxo-1,3-dihydroisobenzofuran-5-yl)ethyl)amino)methyl)-1H-1,2,3-triazol-1-yl)nicotinonitrile], at 1 µM the inhibition at hERG channels was 15%. In addition, the IC50 at hROMK (human Kir1.1) was determined as 0.0097 µM.

Turning to `Cc1cc(-n2cc(CNC[C@H](O)c3ccc4c(c3C)COC4=O)n(C)c2=O)ncc1C#N` [Example 159, (R)-6-(4-(((2-hydroxy-2-(4-methyl-1-oxo-1,3-dihydroisobenzofuran-5-yl)ethyl)amino)methyl)-3-methyl-2-oxo-2,3-dihydro-1H-imidazol-1-yl)-4-methylnicotinonitrile], at 1 µM the inhibition against hERG channels was 6.5%. In addition, the IC50 at hROMK (human Kir1.1) was determined as 0.093 µM.

Regarding `Cc1c([C@@H](O)CNCc2cnn(-c3ccc(C#N)cc3)c2)ccc2c1COC2=O` [Example 160, (R)-4-(4-(((2-hydroxy-2-(4-methyl-1-oxo-1,3-dihydroisobenzofuran-5-yl)ethyl)amino)methyl)-1H-pyrazol-1-yl)benzonitrile], 1 µM produced 89% inhibition against hERG channels. In addition, the IC50 on hROMK (human Kir1.1) is 0.024 µM.

`Cc1c([C@@H](O)CNCc2cnn(-c3cccc(C#N)c3)c2)ccc2c1COC2=O` [Example 161, (R)-3-(4-(((2-hydroxy-2-(4-methyl-1-oxo-1,3-dihydroisobenzofuran-5-yl)ethyl)amino)methyl)-1H-pyrazol-1-yl)benzonitrile] showed an inhibition at 1 µM against hERG channels of 48%. Moreover, the IC50 on hROMK (human Kir1.1) came to 0.077 µM.

At hERG channels, `Cc1c([C@@H](O)CN(Cc2ccc(-c3ccc4oc(=O)n(C)c4c3)nc2)CC2CC2)ccc2c1COC2=O` [Example 162, (R)-5-(5-(((cyclopropylmethyl)(2-hydroxy-2-(4-methyl-1-oxo-1,3-dihydroisobenzofuran-5-yl)ethyl)amino)methyl)pyridin-2-yl)-3-methylbenzo[d]oxazol-2(3H)-one] registered an inhibition at 1 µM of 44%. Besides, the IC50 at hROMK (human Kir1.1) came out at 0.11 µM.

On hERG channels, `Cc1cc(-n2cc(CNC[C@H](F)c3ccc4c(c3C)COC4=O)cn2)ncc1C#N` [Example 167, (R)-6-(4-(((2-fluoro-2-(4-methyl-1-oxo-1,3-dihydroisobenzofuran-5-yl)ethyl)amino)methyl)-1H-pyrazol-1-yl)-4-methylnicotinonitrile] registered an inhibition at 1 µM of 41%. In addition, at hROMK (human Kir1.1), the IC50 worked out at 0.068 µM.

(Values after US10723723B2, “Substituted bicycle heterocyclic derivatives useful as ROMK channel inhibitors” (BRISTOL-MYERS SQUIBB COMPANY, priority 2016, dated 2020).)
